From the OligoGym collection come the findings set out here.

HELM strings list units from the 5' end as sugar, base in round brackets, then linkage (d deoxyribose, r ribose, m 2'-O-methyl, p phosphodiester). Strings are as the collection lists them; they lack the last nucleoside at the 3' end of the tested compound. [moe] = 2'-O-(2-methoxyethyl) (MOE); [sp] = phosphorothioate linkage; [m5C] = 5-methylcytosine

The series addresses APP. The series can be described thus: mouse, dose not given. Conditions: ASO.
“RNA1{[moe]([m5C])[sp].[moe](T)p.[moe](T)p.[moe]([m5C])p.[moe]([m5C])[sp].d([m5C])[sp].d(A)[sp].d(T)[sp].d(T)[sp].d([m5C])[sp].d(T)[sp].d([m5C])[sp].d(T)[sp].d([m5C])[sp].d(A)[sp].[moe](T)p.[moe](G)p.[moe](A)[sp].[moe]([m5C])}$$$$ (last 3' nucleoside missing)” had a 3 h FOB score of 0.25 score 0-7.

In the case of “RNA1{[moe](G)[sp].[moe](T)p.[moe](T)p.[moe]([m5C])p.[moe]([m5C])[sp].d(A)[sp].d(A)[sp].d(A)[sp].d(G)[sp].d(A)[sp].d(T)[sp].d(T)[sp].d([m5C])[sp].d([m5C])[sp].d(A)[sp].[moe]([m5C])p.[moe](T)p.[moe](T)[sp].[moe](T)}$$$$ (last 3' nucleoside missing)”, the 3 h FOB score turned out to be 1.25 score 0-7.

The substance “RNA1{[moe](G)[sp].[moe]([m5C])p.[moe](A)p.[moe](G)p.[moe]([m5C])[sp].d(A)[sp].d(G)[sp].d(G)[sp].d(T)[sp].d(T)[sp].d(T)[sp].d([m5C])[sp].d([m5C])[sp].d(A)[sp].d(T)[sp].[moe](A)p.[moe](A)p.[moe](A)[sp].[moe]([m5C])}$$$$ (last 3' nucleoside missing)” registered a 3 h FOB score of 0 score 0-7.

As for “RNA1{[moe]([m5C])[sp].[moe](A)p.[moe](T)p.[moe]([m5C])p.[moe](A)[sp].d([m5C])[sp].d(T)[sp].d(T)[sp].d(A)[sp].d([m5C])[sp].d(A)[sp].d(A)[sp].d(A)[sp].d([m5C])[sp].d(T)[sp].[moe]([m5C])p.[moe](A)p.[moe]([m5C])[sp].[moe]([m5C])}$$$$ (last 3' nucleoside missing)”, the 3 h FOB score amounted to 0.5 score 0-7.

“RNA1{[moe]([m5C])[sp].[moe](A)p.[moe]([m5C])p.[moe]([m5C])p.[moe](A)[sp].d(T)[sp].d([m5C])[sp].d(T)[sp].d(A)[sp].d(T)[sp].d(A)[sp].d(A)[sp].d(T)[sp].d(A)[sp].d([m5C])[sp].[moe]([m5C])p.[moe](A)p.[moe](T)[sp].[moe]([m5C])}$$$$ (last 3' nucleoside missing)”: the 3 h FOB score came to 0 score 0-7.

Substance “RNA1{[moe](G)[sp].[moe]([m5C])p.[moe](A)p.[moe](T)p.[moe](G)[sp].d(T)[sp].d(T)[sp].d([m5C])[sp].d(A)[sp].d(T)[sp].d(T)[sp].d([m5C])[sp].d(T)[sp].d([m5C])[sp].d(A)[sp].[moe](T)p.[moe]([m5C])p.[moe]([m5C])[sp].[moe]([m5C])}$$$$ (last 3' nucleoside missing)” displayed a 3 h FOB score of 0 score 0-7.

“RNA1{[moe](T)[sp].[moe]([m5C])p.[moe](A)p.[moe]([m5C])p.[moe](A)[sp].d(G)[sp].d(T)[sp].d(T)[sp].d(T)[sp].d(A)[sp].d([m5C])[sp].d([m5C])[sp].d([m5C])[sp].d([m5C])[sp].d(A)[sp].[moe](A)p.[moe](G)p.[moe]([m5C])[sp].[moe](T)}$$$$ (last 3' nucleoside missing)” yielded a 3 h FOB score of 0 score 0-7.

The substance “RNA1{[moe](T)[sp].[moe](T)p.[moe](T)p.[moe](G)p.[moe]([m5C])[sp].d(T)[sp].d(A)[sp].d([m5C])[sp].d(T)[sp].d(T)[sp].d(G)[sp].d(A)[sp].d(T)[sp].d(A)[sp].d(A)[sp].[moe](T)p.[moe]([m5C])p.[moe]([m5C])[sp].[moe](T)}$$$$ (last 3' nucleoside missing)” yielded a 3 h FOB score of 1 score 0-7.

Regarding “RNA1{[moe](G)[sp].[moe]([m5C])p.[moe](T)p.[moe]([m5C])p.[moe](A)[sp].d(T)[sp].d(T)[sp].d(T)[sp].d(T)[sp].d(T)[sp].d(T)[sp].d(T)[sp].d(T)[sp].d(A)[sp].d([m5C])[sp].[moe](A)p.[moe](T)p.[moe](G)[sp].[moe](A)}$$$$ (last 3' nucleoside missing)”, the 3 h FOB score was 0 score 0-7.

The substance “RNA1{[moe](G)[sp].[moe](A)p.[moe](T)p.[moe]([m5C])p.[moe](T)[sp].d(G)[sp].d(A)[sp].d(A)[sp].d(T)[sp].d([m5C])[sp].d([m5C])[sp].d([m5C])[sp].d(A)[sp].d([m5C])[sp].d(T)[sp].[moe](T)p.[moe]([m5C])p.[moe]([m5C])[sp].[moe]([m5C])}$$$$ (last 3' nucleoside missing)” returned a 3 h FOB score of 0 score 0-7.

“RNA1{[moe](G)[sp].[moe]([m5C])p.[moe](A)p.[moe]([m5C])p.[moe](T)[sp].d(A)[sp].d([m5C])[sp].d(A)[sp].d(T)[sp].d(T)[sp].d(G)[sp].d([m5C])[sp].d(T)[sp].d(T)[sp].d([m5C])[sp].[moe](A)p.[moe](T)p.[moe](A)[sp].[moe]([m5C])}$$$$ (last 3' nucleoside missing)” registered a 3 h FOB score of 1 score 0-7.

For “RNA1{[moe](G)[sp].[moe]([m5C])p.[moe](A)p.[moe](A)p.[moe](A)[sp].d(G)[sp].d(A)[sp].d(A)[sp].d([m5C])[sp].d(A)[sp].d([m5C])[sp].d([m5C])[sp].d(A)[sp].d(A)[sp].d(T)[sp].[moe](T)p.[moe](T)p.[moe](T)[sp].[moe](T)}$$$$ (last 3' nucleoside missing)”, the 3 h FOB score is 3 score 0-7.

In turn, “RNA1{[moe](T)[sp].[moe](T)p.[moe](T)p.[moe](A)p.[moe]([m5C])[sp].d([m5C])[sp].d(T)[sp].d(T)[sp].d(T)[sp].d(A)[sp].d(A)[sp].d([m5C])[sp].d(A)[sp].d(T)[sp].d(T)[sp].[moe]([m5C])p.[moe]([m5C])p.[moe](T)[sp].[moe]([m5C])}$$$$ (last 3' nucleoside missing)” displayed a 3 h FOB score of 0 score 0-7.

The substance “RNA1{[moe](G)[sp].[moe]([m5C])p.[moe](G)p.[moe](G)p.[moe](A)[sp].d([m5C])[sp].d(A)[sp].d(T)[sp].d(A)[sp].d([m5C])[sp].d(T)[sp].d(T)[sp].d([m5C])[sp].d(T)[sp].d(T)[sp].[moe](T)p.[moe](A)p.[moe](G)[sp].[moe]([m5C])}$$$$ (last 3' nucleoside missing)” had a 3 h FOB score of 0 score 0-7.

“RNA1{[moe](G)[sp].[moe]([m5C])p.[moe](T)p.[moe](T)p.[moe](A)[sp].d([m5C])[sp].d(A)[sp].d(T)[sp].d([m5C])[sp].d(A)[sp].d(T)[sp].d(T)[sp].d(T)[sp].d(T)[sp].d([m5C])[sp].[moe](T)p.[moe](T)p.[moe](G)[sp].[moe]([m5C])}$$$$ (last 3' nucleoside missing)”: the 3 h FOB score is 0 score 0-7.

“RNA1{[moe]([m5C])[sp].[moe](A)p.[moe](T)p.[moe](T)p.[moe]([m5C])[sp].d(T)[sp].d([m5C])[sp].d(T)[sp].d(T)[sp].d(A)[sp].d(T)[sp].d(A)[sp].d(T)[sp].d(T)[sp].d([m5C])[sp].[moe]([m5C])p.[moe](T)p.[moe](T)[sp].[moe](A)}$$$$ (last 3' nucleoside missing)” showed a 3 h FOB score of 0 score 0-7.

“RNA1{[moe](G)[sp].[moe](G)p.[moe]([m5C])p.[moe](A)p.[moe](T)p.[moe]([m5C])p.d(A)[sp].d([m5C])[sp].d(T)[sp].d(T)[sp].d(A)[sp].d([m5C])[sp].d(A)[sp].d(A)[sp].d(A)[sp].d([m5C])[sp].[moe](T)p.[moe]([m5C])[sp].[moe](A)}$$$$ (last 3' nucleoside missing)”: the 3 h FOB score amounted to 0 score 0-7.

Consider “RNA1{[moe](T)[sp].[moe]([m5C])p.[moe](T)p.[moe](T)p.[moe]([m5C])[sp].d([m5C])[sp].d([m5C])[sp].d(A)[sp].d([m5C])[sp].d(A)[sp].d(T)[sp].d(T)[sp].d(A)[sp].d(T)[sp].d(T)[sp].[moe]([m5C])p.[moe](T)p.[moe](A)[sp].[moe](T)}$$$$ (last 3' nucleoside missing)”, for which the 3 h FOB score stood at 0 score 0-7.

In the case of “RNA1{[moe](G)[sp].[moe](T)p.[moe](T)p.[moe](T)p.[moe]([m5C])[sp].d(G)[sp].d([m5C])[sp].d(A)[sp].d(A)[sp].d(A)[sp].d([m5C])[sp].d(A)[sp].d(T)[sp].d([m5C])[sp].d([m5C])[sp].[moe](A)p.[moe](T)p.[moe]([m5C])[sp].[moe]([m5C])}$$$$ (last 3' nucleoside missing)”, the 3 h FOB score amounted to 0.5 score 0-7.

With “RNA1{[moe](G)[sp].[moe](A)p.[moe]([m5C])p.[moe](A)p.[moe](T)[sp].d([m5C])[sp].d(A)[sp].d(T)[sp].d(T)[sp].d(T)[sp].d(A)[sp].d(A)[sp].d(T)[sp].d(T)[sp].d(T)[sp].[moe](G)p.[moe](T)p.[moe](G)[sp].[moe]([m5C])}$$$$ (last 3' nucleoside missing)”, the 3 h FOB score was 0 score 0-7.

For the substance “RNA1{[moe](T)[sp].[moe](G)[sp].[moe](T)[sp].[moe]([m5C])[sp].[moe](A)[sp].d([m5C])[sp].d(T)[sp].d(T)[sp].d(T)[sp].d([m5C])[sp].d(T)[sp].d(T)[sp].d([m5C])[sp].d(A)[sp].d(G)[sp].[moe]([m5C])[sp].[moe]([m5C])[sp].[moe](A)[sp].[moe](G)}$$$$ (last 3' nucleoside missing)”, the 3 h FOB score came out at 6 score 0-7.

The substance “RNA1{[moe](T)[sp].[moe]([m5C])p.[moe](A)p.[moe](T)p.[moe]([m5C])[sp].d(A)[sp].d([m5C])[sp].d([m5C])[sp].d(A)[sp].d(T)[sp].d(A)[sp].d([m5C])[sp].d(A)[sp].d(T)[sp].d(A)[sp].[moe](G)p.[moe]([m5C])p.[moe](A)[sp].[moe](G)}$$$$ (last 3' nucleoside missing)” registered a 3 h FOB score of 0.67 score 0-7.

Take “RNA1{[moe](G)[sp].[moe]([m5C])p.[moe](T)p.[moe](T)p.[moe]([m5C])[sp].d(A)[sp].d(T)[sp].d(T)[sp].d(A)[sp].d([m5C])[sp].d([m5C])[sp].d(A)[sp].d([m5C])[sp].d(T)[sp].d(T)[sp].[moe]([m5C])p.[moe](T)p.[moe](G)[sp].[moe](A)}$$$$ (last 3' nucleoside missing)”: the 3 h FOB score came to 1 score 0-7.

“RNA1{[moe](T)[sp].[moe](G)p.[moe](T)p.[moe](G)p.[moe]([m5C])[sp].d(A)[sp].d([m5C])[sp].d(A)[sp].d(T)[sp].d(A)[sp].d(A)[sp].d(A)[sp].d(A)[sp].d([m5C])[sp].d(A)[sp].[moe](G)p.[moe](G)p.[moe]([m5C])[sp].[moe](A)}$$$$ (last 3' nucleoside missing)”: the 3 h FOB score was 1 score 0-7.
